Measurements published in patent US10071957B2, “N-substituted benzamides and methods of use thereof” (GENENTECH, INC., priority 2012, dated 2018).

Tests used:
hNaV1.7 [1] = target: T1, hNaV1.7 (Homo sapiens (Human), UniProt Q15858); test: Competitive binding of tritiated compound to membranes from cells expressing hNav1.7 and the β1 subunit; settings: 100 pM [3H]compound, 18 h, room temperature; read-out: NaV1.7 395 Membrane Binding IC50
Method in brief: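 Membranes from cells expressing hNav1.7 with β1 subunit incubated 18 h at room temperature with 100 pM tritiated reference compound and test compound in 100 mM NaCl, 20 mM Tris HCl, pH 7.4. Nonspecific binding defined with 1 μM unlabelled compound; bound radioactivity counted after GF/C filtration. IC50 from 4-parameter logistic fit.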

hNaV1.5 = hNaV1.5 (Homo sapiens (Human), UniProt Q14524); test: Patch voltage clamp electrophysiology, inactivated state block of NaV1.5 in HEK-293 cells; type: cell-based; settings: HEK cells with β1 subunit, read-out: hNaV 1.5 IC50
Method: (§1) Patch voltage clamp electrophysiology allows for the direct measurement and quantification of block of voltage-gated sodium channels (NaV's), and allows the determination of the time- and voltage-dependence of block which has been interpreted as differential binding to the resting, open, and inactivated states of the sodium channel (Hille, B., Journal of General Physiology (1977), 69: 497-515).
(§2) The following patch voltage clamp electrophysiology studies were performed on representative compounds of the invention using human embryonic kidney cells (HEK), permanently transfected with an expression vector containing the full-length cDNA coding for the desired human sodium channel α-subunit, grown in culture media containing 10% FBS, 1% PSG, and 0.5 mg/mL G418 at 37° C. with 5% CO2. […] NaV1.7 and NaV1.5 cDNAs (NM_002977 and AC137587; SCN5A, respectively) were stably expressed in HEK-293 cells. The β1 subunit was coexpressed in both the NaV1.7 and NaV1.5 cell lines.
(§3) Sodium currents were measured using the patch clamp technique in the whole-cell configuration using either a PatchXpress automated voltage clamp or manually using an Axopatch 200B (Axon Instruments) or Model 2400 (A-M systems) amplifier. The manual voltage clamp protocol was as follows:
(§4) Borosilicate glass micropipettes were fire-polished to a tip diameter yielding a resistance of 2-4 Mohms in the working solutions. The pipette was filled with a solution comprised of: 5 mM NaCl, 10 mM CsCl, 120 mM CsF, 0.1 mM CaCl2, 2 mM MgCl2, 10 mM HEPES, 10 mM EGTA; and adjusted to pH 7.2 with CsOH. The external solution had the following composition: 140 mM NaCl, 5 mM KCl, 2 mM CaCl2, 1 mM MgCl2, 10 mM HEPES; and adjusted to pH 7.4 with NaOH. In some studies, the external sodium was reduced by equimolar replacement with choline. Osmolarity in the CsF internal and NaCl external solutions was adjusted to 300 mOsm/kg and 310 mOsm/kg with glucose, respectively. All recordings were performed at ambient temperature in a bath chamber with a volume of 150 μL. Control sodium currents were measured in 0.5% DMSO. Controls and representative compounds of the invention were applied to the recording chamber through a 4-pinch or 8-pinch valve bath perfusion system manufactured by ALA Scientific Instruments.
(§5) Currents were recorded at 40 kHz sampling frequency, filtered at […], and stored using a Digidata-1322A analogue/digital interface with the pClamp software (Axon Instruments). Series resistance compensation was applied (60-80%). […] All statistics in this study are given as mean±SD.
The membrane potential was maintained at a voltage where inactivation of the channel is complete (which was −60 mV for both NaV1.7 and NaV1.5). The voltage is then stepped back to a very negative (Vhold=[…]) voltage for 20 ms and then a test pulse is applied to quantify the compound block. The 20 ms brief repolarization was long enough for compound-free channels to completely recover from fast inactivation, but the compound-bound channels recovered more slowly such that negligible recovery could occur during this interval. The percent decrease in sodium current following wash-on of compound was taken as the percent block of sodium channels.

hNaV1.7 [2] = target: T1, hNaV1.7; test: Patch voltage clamp electrophysiology, inactivated state block of NaV1.7 in HEK-293 cells; type: cell-based; settings: HEK cells with β1 subunit, read-out: hNaV 1.7 IC50
Method: as §1, §2, §3
as §4, with “The” for “Borosilicate glass micropipettes were fire-polished to a tip diameter yielding a resistance of 2-4 Mohms in the working solutions. The”
as §5
The membrane potential was maintained at a voltage where inactivation of the channel is complete (which was −60 mV for both NaV1.7 and NaV1.5). […] The percent decrease in sodium current following wash-on of compound was taken as the percent block of sodium channels.

T1 sequence (Q15858 whole entry, looked up): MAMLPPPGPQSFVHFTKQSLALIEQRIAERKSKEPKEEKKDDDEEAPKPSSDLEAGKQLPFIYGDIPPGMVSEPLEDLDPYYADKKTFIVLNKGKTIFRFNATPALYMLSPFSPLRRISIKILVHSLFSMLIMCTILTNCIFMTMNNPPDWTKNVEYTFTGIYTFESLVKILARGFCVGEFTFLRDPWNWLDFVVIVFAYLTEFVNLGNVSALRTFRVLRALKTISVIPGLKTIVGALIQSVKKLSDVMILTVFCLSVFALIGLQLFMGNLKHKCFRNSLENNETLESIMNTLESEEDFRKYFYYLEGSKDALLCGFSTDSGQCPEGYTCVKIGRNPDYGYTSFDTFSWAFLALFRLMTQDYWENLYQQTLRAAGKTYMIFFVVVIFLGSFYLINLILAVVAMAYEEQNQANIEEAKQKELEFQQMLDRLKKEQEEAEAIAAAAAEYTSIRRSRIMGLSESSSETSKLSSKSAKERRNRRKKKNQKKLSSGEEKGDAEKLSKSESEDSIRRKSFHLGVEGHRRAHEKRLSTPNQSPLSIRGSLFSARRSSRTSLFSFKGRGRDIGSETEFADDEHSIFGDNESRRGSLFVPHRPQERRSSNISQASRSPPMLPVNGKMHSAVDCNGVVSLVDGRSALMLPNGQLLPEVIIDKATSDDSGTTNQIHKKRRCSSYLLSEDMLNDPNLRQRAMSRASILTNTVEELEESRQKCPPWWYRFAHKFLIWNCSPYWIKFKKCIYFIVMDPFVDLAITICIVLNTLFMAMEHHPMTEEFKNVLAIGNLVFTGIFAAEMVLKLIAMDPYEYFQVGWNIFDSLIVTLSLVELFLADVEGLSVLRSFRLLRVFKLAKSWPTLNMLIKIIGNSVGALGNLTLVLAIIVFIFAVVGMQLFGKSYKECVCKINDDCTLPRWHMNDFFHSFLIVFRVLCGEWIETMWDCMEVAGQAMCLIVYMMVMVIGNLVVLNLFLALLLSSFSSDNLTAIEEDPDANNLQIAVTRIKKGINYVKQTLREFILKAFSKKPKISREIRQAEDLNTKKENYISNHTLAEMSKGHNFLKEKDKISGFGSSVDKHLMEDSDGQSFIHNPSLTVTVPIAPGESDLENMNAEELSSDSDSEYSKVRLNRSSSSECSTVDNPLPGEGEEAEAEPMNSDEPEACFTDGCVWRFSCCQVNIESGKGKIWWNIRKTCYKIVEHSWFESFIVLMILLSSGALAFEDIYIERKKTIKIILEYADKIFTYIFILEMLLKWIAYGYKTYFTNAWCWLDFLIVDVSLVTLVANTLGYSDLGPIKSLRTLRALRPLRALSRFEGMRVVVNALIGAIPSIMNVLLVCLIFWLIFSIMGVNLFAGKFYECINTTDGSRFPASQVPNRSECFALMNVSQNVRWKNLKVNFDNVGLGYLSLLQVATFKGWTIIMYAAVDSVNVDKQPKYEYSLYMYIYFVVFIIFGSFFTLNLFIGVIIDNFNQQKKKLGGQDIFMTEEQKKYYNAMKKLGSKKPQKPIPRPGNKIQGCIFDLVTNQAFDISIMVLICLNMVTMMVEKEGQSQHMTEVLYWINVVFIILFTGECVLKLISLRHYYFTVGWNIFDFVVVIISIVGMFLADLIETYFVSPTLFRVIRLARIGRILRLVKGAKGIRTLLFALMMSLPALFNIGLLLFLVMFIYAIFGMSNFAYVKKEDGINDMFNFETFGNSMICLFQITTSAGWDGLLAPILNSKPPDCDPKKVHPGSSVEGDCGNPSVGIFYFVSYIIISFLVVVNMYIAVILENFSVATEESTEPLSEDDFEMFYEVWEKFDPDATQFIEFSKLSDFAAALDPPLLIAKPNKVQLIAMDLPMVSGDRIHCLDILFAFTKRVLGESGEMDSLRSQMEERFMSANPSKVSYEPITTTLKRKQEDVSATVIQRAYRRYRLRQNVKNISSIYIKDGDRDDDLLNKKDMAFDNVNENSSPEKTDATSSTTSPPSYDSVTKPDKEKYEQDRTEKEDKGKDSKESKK
T1 sequence (Q07699 whole entry partner, looked up): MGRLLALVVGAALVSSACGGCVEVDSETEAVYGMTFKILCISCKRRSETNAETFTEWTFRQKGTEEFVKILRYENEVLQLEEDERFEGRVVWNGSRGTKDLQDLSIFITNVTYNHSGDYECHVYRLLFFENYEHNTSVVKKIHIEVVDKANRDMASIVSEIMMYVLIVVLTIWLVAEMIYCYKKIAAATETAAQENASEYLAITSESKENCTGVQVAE
Chain of hNaV1.5 (Q14524 whole entry): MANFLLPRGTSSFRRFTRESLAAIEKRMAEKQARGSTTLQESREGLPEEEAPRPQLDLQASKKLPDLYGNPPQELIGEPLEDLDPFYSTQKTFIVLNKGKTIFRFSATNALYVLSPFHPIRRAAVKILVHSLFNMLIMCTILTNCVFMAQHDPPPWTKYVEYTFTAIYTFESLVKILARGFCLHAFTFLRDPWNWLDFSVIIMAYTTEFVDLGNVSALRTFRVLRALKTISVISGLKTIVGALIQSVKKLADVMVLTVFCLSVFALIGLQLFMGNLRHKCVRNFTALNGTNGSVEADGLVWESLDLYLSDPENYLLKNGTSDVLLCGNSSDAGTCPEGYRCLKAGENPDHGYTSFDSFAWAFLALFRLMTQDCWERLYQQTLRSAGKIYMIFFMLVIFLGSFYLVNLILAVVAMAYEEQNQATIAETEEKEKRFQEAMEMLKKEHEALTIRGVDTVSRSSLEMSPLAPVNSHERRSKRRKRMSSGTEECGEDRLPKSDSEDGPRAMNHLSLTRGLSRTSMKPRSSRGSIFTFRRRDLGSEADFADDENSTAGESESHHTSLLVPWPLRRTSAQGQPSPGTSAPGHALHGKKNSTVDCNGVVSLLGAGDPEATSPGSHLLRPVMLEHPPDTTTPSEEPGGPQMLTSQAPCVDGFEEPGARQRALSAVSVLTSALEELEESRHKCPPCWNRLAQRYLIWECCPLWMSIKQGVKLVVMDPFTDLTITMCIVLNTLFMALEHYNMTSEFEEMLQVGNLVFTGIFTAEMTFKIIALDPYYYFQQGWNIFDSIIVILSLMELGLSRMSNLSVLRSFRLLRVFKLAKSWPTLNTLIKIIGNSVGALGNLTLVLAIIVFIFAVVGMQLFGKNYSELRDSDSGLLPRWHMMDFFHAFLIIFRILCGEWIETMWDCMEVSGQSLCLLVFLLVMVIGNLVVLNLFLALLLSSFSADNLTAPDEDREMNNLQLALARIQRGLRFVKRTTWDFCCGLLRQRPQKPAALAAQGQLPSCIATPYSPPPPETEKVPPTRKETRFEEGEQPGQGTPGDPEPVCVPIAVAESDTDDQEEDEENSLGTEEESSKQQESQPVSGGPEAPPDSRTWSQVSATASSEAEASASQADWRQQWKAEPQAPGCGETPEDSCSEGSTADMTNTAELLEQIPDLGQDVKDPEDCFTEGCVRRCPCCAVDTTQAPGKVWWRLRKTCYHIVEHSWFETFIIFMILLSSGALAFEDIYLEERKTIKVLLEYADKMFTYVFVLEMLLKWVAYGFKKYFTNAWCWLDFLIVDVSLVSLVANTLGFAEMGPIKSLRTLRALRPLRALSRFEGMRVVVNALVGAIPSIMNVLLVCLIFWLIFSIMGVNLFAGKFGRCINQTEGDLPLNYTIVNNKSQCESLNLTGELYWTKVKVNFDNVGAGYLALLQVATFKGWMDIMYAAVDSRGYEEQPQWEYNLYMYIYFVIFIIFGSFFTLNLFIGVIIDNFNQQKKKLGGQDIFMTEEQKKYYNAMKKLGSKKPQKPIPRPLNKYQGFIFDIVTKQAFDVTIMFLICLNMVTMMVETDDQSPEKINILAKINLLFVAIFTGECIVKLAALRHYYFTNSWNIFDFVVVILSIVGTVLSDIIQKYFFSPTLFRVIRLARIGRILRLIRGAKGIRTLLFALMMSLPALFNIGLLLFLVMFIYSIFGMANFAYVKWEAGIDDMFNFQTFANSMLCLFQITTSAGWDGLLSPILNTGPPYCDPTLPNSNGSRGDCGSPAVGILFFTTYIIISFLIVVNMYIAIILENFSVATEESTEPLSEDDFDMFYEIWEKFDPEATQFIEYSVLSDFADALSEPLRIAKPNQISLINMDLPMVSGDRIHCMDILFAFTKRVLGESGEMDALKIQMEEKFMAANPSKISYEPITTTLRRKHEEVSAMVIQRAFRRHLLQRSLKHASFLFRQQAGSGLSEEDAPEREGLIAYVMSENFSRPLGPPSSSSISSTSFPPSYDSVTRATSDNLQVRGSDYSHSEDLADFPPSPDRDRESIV

Row | SMILES | IC50 (hNaV1.7 [1]) | IC50 (hNaV1.5) | IC50 (hNaV1.7 [2])
1 | CNS(=O)(=O)NC(=O)c1cc(Cl)c(Oc2cnc(OCC(C)C)c(Cl)c2)cc1F [Preparation 6, 5-chloro-4-((5-chloro-6-isobutoxypyridin-3-yl)oxy)-2-fluoro-N-(N-methylsulfamoyl) benzamide] | 8.5 nM | 7180 nM | 6 nM
2 | CC(C)Oc1ncc(Oc2cc(F)c(C(=O)NS(=O)(=O)N3CCC3)cc2C2CC2)cc1Cl [Preparation 87] | 6 nM | 1200 nM | 2.1 nM
3 | CC(C)COc1ncc(Oc2cc(F)c(C(=O)NS(=O)(=O)c3cn(C)cn3)cc2Cl)cc1Cl [Preparation 24, 5-chloro-4-((5-chloro-6-isobutoxypyridin-3-yl)oxy)-2-fluoro-N-((1-methyl-1H-imidazol-4-yl)sulfonyl)benzamide] | 578 nM | – | 34 nM
4 | CC(C)COc1ncc(Oc2cc(F)c(C(=O)NS(=O)(=O)N3CCCCCC3)cc2Cl)cc1Cl [Preparation 16, N-(azepan-1-ylsulfonyl)-5-chloro-4-((5-chloro-6-isobutoxypyridin-3-yl)oxy)-2-fluorobenzamide] | 542 nM | – | 73 nM
5 | CC(C)Oc1ncc(Oc2ccc(C(=O)NS(=O)(=O)N3CCC3)cc2C2CC2)cc1Cl [Preparation 84] | 25 nM | 3500 nM | 8.4 nM
6 | CC(C)COc1ncc(Oc2cc(F)c(C(=O)NS(=O)(=O)N3CCCC3)cc2Cl)cc1Cl [Preparation 14, 5-chloro-4-((5-chloro-6-isobutoxypyridin-3-yl)oxy)-2-fluoro-N-(pyrrolidin-1-ylsulfonyl)benzamide] | 30.1 nM | – | 44 nM
7 | CN(C)S(=O)(=O)NC(=O)c1cc(Cl)c(COc2ccc(Cl)c(Cl)c2)cc1F [Preparation 5, 5-chloro-4-((3,4-dichlorophenoxy)methyl)-N-(N,N-dimethylsulfamoyl)-2-fluorobenzamide] | 174 nM | – | 19 nM
8 | CC(C)COc1ncc(Oc2cc(F)c(C(=O)NS(=O)(=O)N(C)C)cc2Cl)cc1Cl [Preparation 3, 5-chloro-4-((5-chloro-6-isobutoxypyridin-3-yl)oxy)-N-(N,N-dimethylsulfamoyl)-2-fluorobenzamide] | 24.8 nM | 2180 nM | 11 nM
9 | CC(C)COc1ncc(Oc2cc(F)c(C(=O)NS(=O)(=O)N3CCc4ccccc43)cc2Cl)cc1Cl [Preparation 25, 5-chloro-4-((5-chloro-6-isobutoxypyridin-3-yl)oxy)-2-fluoro-N-(indolin-1-yl-sulfonyl)benzamide] | 388 nM | – | 190 nM
10 | COc1ncccc1-c1cc(C(=O)NS(=O)(=O)N2CCC2)ccc1Oc1cnc(OC(C)C)c(Cl)c1 [Preparation 86] | 11 nM | > 10000 nM | 22 nM
11 | CNS(=O)(=O)NC(=O)c1cc(Cl)c(Oc2ccc(OC(F)(F)F)c(Cl)c2)cc1F [Preparation 11, 5-chloro-4-(3-chloro-4-(trifluoromethoxy)phenoxy)-2-fluoro-N-(N-methyl-sulfamoyl)benzamide] | 145 nM | – | 15 nM
12 | CC(C)COc1ncc(Oc2cc(F)c(C(=O)NS(=O)(=O)c3cccnc3)cc2Cl)cc1Cl [Preparation 28, 5-chloro-4-((5-chloro-6-isobutoxypyridin-3-yl)oxy)-2-fluoro-N-(pyridin-3-yl-sulfonyl)benzamide] | 703 nM | – | 57 nM
13 | CC(C)COc1ncc(Oc2cc(F)c(C(=O)NS(=O)(=O)c3c[nH]cn3)cc2Cl)cc1Cl [Preparation 26, N-((1H-imidazol-4-yl)sulfonyl)-5-chloro-4-((5-chloro-6-isobutoxypyridin-3-yl)oxy)-2-fluorobenzamide] | 77.3 nM | – | 9 nM
14 | CC(C)Oc1ncc(OCc2cc(F)c(C(=O)NS(=O)(=O)N3CCC3)cc2Cl)cc1Cl [Preparation 82] | 43 nM | – | 6.1 nM
15 | C=Cc1cc(C(=O)NS(=O)(=O)N2CCC2)c(F)cc1Oc1cnc(OC(C)C)c(Cl)c1 [Preparation 91] | 5 nM | 2600 nM | 6.7 nM
16 | CN(C)S(=O)(=O)NC(=O)c1cc(Cl)c(Oc2ccc(OC(F)(F)F)c(Cl)c2)cc1F [Preparation 12, 5-chloro-4-(3-chloro-4-(trifluoromethoxy)phenoxy)-N-(N,N-dimethylsulfamoyl)-2-fluorobenzamide] | 218 nM | – | 41 nM
